Test results from US7893023B2, “Prodrugs activated by plasmin and their use in cancer chemotherapy” (priority 2000, dated 2011).
Read-outs that look alike come from different tables or passages of the source.

Key:
[1] = system: LS174T colon tumor xenografts; test: Chemotherapeutic activity in the LS174T human colon tumor xenograft model; format: in vivo, mice
Text: Animals were kept under pathogen-free conditions with food and water supplied ad libitum, and kept for about one week before implantation of the tumors. Fragments (˜2 mm) of tumors grown in nude mice were implanted subcutaneously in both flanks of the mice. Tumors were generally allowed to grow to attain a diameter of 5-6 mm each (approximately two weeks).
The mice weighed 20.0-25.0 g at the beginning of the study. They were selected and assigned to groups in order to have equally distributed tumor volumes in the different groups. In each group, mice were labeled individually. Treatments were assigned randomly to those groups.
All dosing solutions were prepared the day of injection by dissolution in water ( 1/10 of the expected final volume) and further dilution with 0.9% (w/v) NaCl. The concentration of these solutions was checked (A475 nm determination) after sterilization by filtration (0.22 μm) and adjusted to the final required value using sterile 0.9% (w/v) NaCl).
Treatments were administered by the i.p. route. The mice received a constant volume (10 μl/g) of either saline (control group) or drug. Mortality and clinical signs were recorded up to 4 hours post-treatment on dosing days, and daily thereafter. Their behavior was equally noted. Individual body weights were generally recorded daily until day 14 and at least twice a week thereafter.
Tumor growth was monitored by two-dimensional measurements using calipers and a precision of 0.5 mm. Tumor volumes were calculated according to the following formula: Vt=[length×(width)^2]/2
Median relative tumor volumes (RTV) were calculated as tumor volumes determined at individual days divided by tumor volumes on day 0. For treated groups, growth inhibition was estimated as the percentage ratio of median RTV of treated (T) mice versus controls (C) on each day of tumor treatment. T/C(%)=[Median RTV(treated group)/Median RTV(control group)]×100
The minimal T/C value (%) for each treatment was used as a parameter for maximum efficacy. Duration of growth inhibition was assessed by considering growth delays (T-C) for one (200%) and two (400%) doublings of the median RTV).
To determine the statistical significance of any difference in median RTV between two groups, the Mann-Whitney test was used. The test was conducted at a p level of 0.05 (two tailed) using the GraphPad Prism 3.00 software.
Female Swiss nude mice were 5 weeks old upon delivery (See General Methods, Section O). They were kept under pathogen-free conditions with food and water supplied ad libitum, and kept for about one week before implantation of the tumors. Fragments (˜2 mm) of LS174T tumors grown in nude mice were implanted subcutaneously in both flanks of the mice used in the study. Tumors were left to grow for 17 days. At that time, the mice weighed about 20.5-26.5 g.
Mice were then selected and assigned to groups in order to have equally distributed tumor volumes in different groups (5-6 mice, 9-10 tumors/group). The dose levels of Compound II, DOX used in the study, were selected on the basis of a lethality study previously conducted on OF-1 normal mice. The dose of DOX was based on previous chemotherapy experiments performed in nude mice with the same dosing schedule.
Treatments were administered by the i.p. route on days 0, 1, 2, 3 and 4, the mice receiving a constant volume (10 μl/g) of either saline or the different dosing solutions. DOX was used at 3.8 μmol/kg, Compound II, DOX was used at 25.9 μmol/kg and 34.5 μmol/kg. Clinical signs (recorded 0.5, 1, 2 and 4 hours after dosing and daily between dosing days) and body weights (recorded on each day of tumor measurement) were used to assess treatment toxicity, tumor growth was monitored on days 7, 12, 15, 19, 22, 26, 29, 33 and 36 by two-dimensional measurements using calipers and a precision of 0.5 mm.

OF-1 mice = conditions: obtained under the same conditions, known value; cited from earlier work
[2] = DOX 3.8 μmol/kg, Compound II, DOX lower dosage 25.9 μmol/kg, i.p. days 0-4

Experimental for B16-B16 murine melanoma: Male C57-B16 black mice were 5 weeks old upon delivery. The body weight of the animals was approximately 20 g at the beginning of the test (See General Methods, Section O).
The animals were divided in eight groups (5 mice per group). Confluent murine melanoma B16-B16 cells (See General Methods, Section E.) were washed twice with PBS and EDTA (See General Methods, Section F.) twice and detached with trypsin (2 min incubation at 37° C.), that was thereafter neutralized by DMEM-F12 (containing 10% of calf serum). The cells were centrifuged for 5 min at 300 g. The pellet was resuspended twice in the DMEM-F12 without serum and centrifuged 5 min at 300 g.
The number of cells per ml of DMEM-F12 was then estimated (Brucker chamber) and the dilution of 2.5×10^5 cells/ml prepared. Each animal received 200 μl of this suspension (5.0×10^4 cells) in its tail vein. The day of injection was considered day 0 of the study. […] Animals were weighed on days 0, 1, 3, 6, 8 and 14. Their behavior and eventual clinical signs were also noted. All animals were sacrificed on day 14 and autopsied.
The lung lobes were fixed in a Bouin's solution (picric acid: formaldehyde, 40%: acetic acid, 15:5:1, v/v). Every lobe immersed in the fixing solution in a Petri flask was uniformly lighted against an opaque black background. Pictures of the front and back side of every lobe were taken with the help of a light microscope, scanned and digitized. The relative surface occupied by B116-B16 colonies was then estimated with the Scion Image Program.
The individual mean values were analyzed with the Scheffe's F-test to evaluate the statistical significance of differences observed between the groups.

## COc1cccc2c1C(=O)c1c(O)c3c(c(O)c1C2=O)C[C@@](O)(C(=O)CO)C[C@@H]3O[C@H]1C[C@H](N)[C@H](O)[C@H](C)O1 [DOX, Doxorubicin]
[1]; DOX 3.8 μmol/kg i.p. days 0-4
  antitumor activity: total lack of activity
  tumor regression: No tumor regression
[1]; [2]
  treatment-related mortality: No treatment-related mortality
  weight loss: no significant weight loss
B16-B16 murine melanoma; 5.2 μmol/kg i.p. days 1 and 3, day 14
  lung surface occupied by B16-B16 metastases: 44.0±6.3%
B16-B16 murine melanoma; 5.2 μmol/kg, day 14
  mean body weight, % of initial: 104.7%
B16-B16 murine melanoma; 8.6 μmol/kg i.p. days 1 and 3, day 14
  lung surface occupied by B16-B16 metastases: 23.4±5.7%
B16-B16 murine melanoma; 8.6 μmol/kg, end of study
  mean body weight, % of initial: 110%
B16-B16 murine melanoma; 5.2 and 8.6 μmol/kg
  activity on lung metastases: did not show any significant activity
OF-1 mice
  LD50: 4.1 µmol/kg
